Where “and” joins values, the source holds several entries; their conditions need not be identical. Equal entries are not always repeated. Where two headings read alike, the source gives them in different places.

The EC50 is the concentration that produces a half-maximal response. The IC50 is the concentration at which inhibition is half-maximal.

For this assay, the system named is P. falciparum strain 3D7. Description: P. falciparum growth inhibition assay (Picogreen DNA content, 3 days). It counts as cell-based, Plasmodium falciparum. Conditions: for EC50: P. falciparum 3D7 intraerythrocytic forms, 3 days, mean, read-out: EC50 (IC50 in Fig 4A) for inhibition of parasite growth; for IC50: 3D7, 3D7, Expt 1-3, read-out: IC50 for inhibition of parasite growth, individual experiments. As for the experimental part:
P. falciparum strain 3D7 was obtained from the Malaria Research and Reference Reagent Resource Center (MR4, ATCC, Manassas, VA). Parasites were cultured in a 2% suspension of human erythrocytes and RPMI 1640 (Sigma) medium supplemented with 27 mM sodium bicarbonate, 11 mM glucose, 5 mM HEPES, 1 mM sodium pyruvate, 0.37 mM hypoxanthine, 0.01 mM thymidine, 10 μg/ml gentamicin, and 0.5% Albumax (Gibco) at 37°C, 5% O2/ 5% CO2 / 90% N2 atmosphere as previously described.
Asynchronous P. falciparum cultures were diluted to 1% parasitemia and were treated with compounds at concentrations ranging from 0.195 μM—100 μM. Growth inhibition assays were performed in 100 μl cultures in opaque 96-well plates. Parasite growth was quantified after 3 days by measuring DNA content using Picogreen (Life Technologies)[22]. Fluorescence was measured by a FLUOstar Omega microplate reader (BMG Labtech) at 485 nm excitation and 528 nm emission. IC50 values were calculated by least squares nonlinear regression analysis using GraphPad Prism 6.0 software.

Where [1] appears, read: Plasmodium falciparum, 3D7, 72 h.

On to `Cc1ccc(S(=O)(=O)CCNC(=O)c2c(-c3c(Cl)cccc3Cl)noc2C)cc1` [WU-1, 3-(2,6-dichlorophenyl)-5-methyl-N-[2-(4-methylbenzenesulfonyl)ethyl]-1,2-oxazole-4-carboxamide], for which the EC50 was 5.49 µM. Also, the IC50 (Plasmodium falciparum) was found to be 4.66 µM. Further, the half-maximal effective concentration (EC50) under setting [1] is 5.5 ± 0.6 µM. Besides, the “Parasite kill curve raw reading (Picogreen fluorescence), duplicate wells of Expt 1-3” value (from here on “Parasite kill curve raw reading”) (concentration 0.195312 (μM)) is 31647.2 and 35553.2 and 49650 and 55614 and 44370 and 49901. In addition, the “Parasite kill curve raw reading” value (concentration 0.390625 (μM)) was 38759.2 and 38857.2 and 52621 and 61368 and 45376 and 55663. Besides, the “Parasite kill curve raw reading” value (concentration 0.78125 (μM)) was 33807.2 and 31780.2 and 49005 and 55418 and 44284 and 47486. For the same molecule, for the setting “concentration 1.5625 (μM)”, the “Parasite kill curve raw reading” value is 30912.2 and 34557.2 and 48254 and 53201 and 42714 and 48519. In addition, the “Parasite kill curve raw reading” value (concentration 3.125 (μM)) was 26767.2 and 25415.2 and 46950 and 47685 and 35273 and 35563. Further, where the note is “concentration 6.25 (μM)”, the “Parasite kill curve raw reading” value was 20627.2 and 20040.2 and 32177 and 39080 and 23717 and 27707. Also, the “Parasite kill curve raw reading” value (concentration 25 (μM)) was 7109.17 and 9009.17 and 13213 and 12190 and 10238 and 11917. Moreover, for the setting “concentration 50 (μM)”, the “Parasite kill curve raw reading” value was 6656.17 and 8203.17 and 11766 and 11899 and 11265 and 11133.

On to `COc1c(Br)cc([N+](=O)[O-])c(OC)c1C(=O)NC(=O)Nc1c(C)cccc1Cl` [WU-2, 3-(3-bromo-2,6-dimethoxy-5-nitrobenzoyl)-1-(2-chloro-6-methylphenyl)urea], for which the IC50 (Plasmodium falciparum) was 21.3 µM. For the same molecule, the EC50 under setting [1] was determined as 22.8 ± 0.8 µM. Further, the “Parasite kill curve raw reading” value runs as follows: (concentration 0.195312 (μM)) 56098 and 51137 and 60240 and 31267.2 and 43585.2 and 60791; (concentration 0.390625 (μM)) 62198 and 51117 and 53186 and 43543.2 and 40121.2 and 61300; (concentration 0.78125 (μM)) 60027 and 63524 and 61078 and 36660.2 and 37397.2 and 61445; (concentration 1.5625 (μM)) 62718 and 60757 and 53560 and 40753.2 and 35617.2 and 59505; (concentration 12.5 (μM)) 44791 and 46211 and 39233 and 29745.2 and 34796.2 and 56088; (concentration 25 (μM)) 31771 and 33221 and 31489 and 18075.2 and 22893.2 and 29768.
